From doi:10.1101/2025.08.06.668955, “High-Affinity, Structure-Validated and Selective Macrocyclic Peptide Tools for Chemical Biology Studies of Huntingtin” (bioRxiv, 2025)
Where a SMILES comes first, the peptide text is derived from it. Bridges are numbered along the chain shown (N, C = ends). Primed or numbered codes have the meaning given here. Where no end group is shown, it is not given here. [ ]: non-standard residue; d: D form. FITC′ = not defined here

Assays:
HTTQ23-HAP40 = molecular target: T1, HTTQ23-HAP40 (Homo sapiens, UniProt P23610+P42858, INS38QQ); assay: Thermal shift assay (DSF), HTTQ23-HAP40; assay type: binding; conditions: SYPRO Orange, 0.25 mg/mL protein, macrocycle up to 10 μM, 2.5% DMSO, n=3
T1 construct: Full-length wildtype HTT with a polyQ tract of 23 glutamines; FLAG; made in house; host or cells: Sf9 insect cells (baculovirus)
Experimental: In an Axygen® 384-well PCR microplate (REF# PCR-384-LC480-W-NF, Corning), samples were mixed to yield a final concentration of 0.25 mg/mL Q54 or Q23/HAP40, a 5-pt 2-fold serial dilution of each macrocycle (top concentration of 10 μM, 2.5% DMSO), and 5X SYPRO™ Orange (CAT# S6650, Thermo Fisher Scientific) in buffer (20 mM HEPES pH 7.4, 150 mM NaCl, 1 mM TCEP, 0.005% Tween-20). Differential Scanning Fluorimetry (DSF) was performed using a LightCycler® 480 (Roche LifeSciences) set to a 4 °C/min temperature ramp (20–95 °C) and fluorescence detection at 580 nm. Melting temperatures (Tm) were obtained from the minima of the negative derivative of each curve. The propagated error of the thermal shift (ΔTm) was calculated from the standard deviation of each Tm mean (n=3). To ensure a maximally macrocycle-bound fraction (KD ~10 nM; ~100% bound) at 0.25 mg/mL HTT or HTT-HAP40 (~0.7 μM), the upper limit of macrocycle tested was 10 μM.
98 Supplementary Figure. 10. Thermal shift (ΔTm) induced by macrocycle binding. Melting
99 temperature of HTTQ54 (left) with HL5 or HL2 minus HTTQ54 with DMSO (46.5 °C), and (right)
100 HTTQ23-HAP40 with HD4, HL2, HL5, HHD2, HHD3, or HHL1 minus HTTQ23-HAP40 with DMSO
101 (51.0 °C). ΔTm significance was determined using an unpaired t-test with Welch correction,
102 comparing to the mean Tm of Q54 or Q23-HAP40 with DMSO; *P < 0.05, **P < 0.01, ***P <
103 0.001. The summary table reports the ΔTm and exact P value at the highest concentration tested
(1 picture or pasted object on this page, not shown here)

HAP40 = assay: Macrocycle precipitation (MP), co-purification of HAP40, LC-MS/MS; assay type: binding, human; conditions: HEK293T lysate versus HTT CRISPR knockout line
From the text: To assess macrocycle selectivity and identify potential HTT interacting proteins, we performed LC-MS/MS analysis of the proteins in the MP eluates. To control for non-specific binding, we performed MPs using lysates from a HTT CRISPR knockout cell line ([Jung et al., 2021]). Across all macrocycles, HTT emerged as the most enriched protein after background subtraction (Figure 5b). Given we performed affinity purification using macrocycles targeting distinct HTT surfaces, we hypothesized that any real HTT protein binder might be co-purified with two or more macrocycles. […] In contrast, HAP40 was not enriched by HL5, consistent with its specificity for apo HTT.
(§1) Macrocycles were pre-conjugated to streptavidin beads (Cytiva, 17-5113-01) by incubating with a 30 μL slurry of beads per macrocycle purification (MP) in Lysis Buffer (10 mM Tris-HCl, pH 7.9, 150 mM NaCl, 0.1% NP-40, 1:500 protease inhibitor cocktail (Sigma-Aldrich), 1:1,000 benzonase nuclease, and 2 mM MgCl2) for 1 hour at 4°C. A concentration of 1.25 μM macrocycle was used for conjugation. After incubation, beads were washed three times with 500 μL Lysis Buffer to remove unbound macrocycles and resuspended in 500 μL of lysate at 4 mg/mL protein concentration.
(§2) Cells were harvested by centrifugation at 1,500 rpm for 5 minutes, washed twice with PBS, and snap-frozen. Cell pellets were then resuspended in 500 μL of Lysis Buffer (as described above) and incubated on an end-over-end rotator at 4°C for 1 hour. Lysates were clarified by centrifugation at 20,000g for 15 minutes at 4°C, and the supernatant was transferred to fresh 1.5 mL Eppendorf tubes. Protein concentration was determined by BCA assay (Thermo Fisher Scientific, 23225), yielding approximately 4 mg of protein on average. Lysates were diluted to a final concentration of 4 mg/mL for use, providing […] of total protein per MP.
(§3) Macrocycle-conjugated beads were incubated with 2 mg of lysate in Lysis Buffer for 1 hour at 4°C with rotation. After incubation, beads were collected by centrifugation at 3,000 rpm, and the flow-through was saved for analysis. Beads were then washed sequentially with 1 mL of Wash Buffer 1 (10 mM Tris-HCl, pH 7.9, 100 mM NaCl, 0.1% NP-40) and twice with Wash Buffer 2 (Wash Buffer 1 without detergent). Lastly, bound proteins were eluted from the beads with 200 μL of 0.5 M NH4OH and flash-frozen in liquid nitrogen.
All sample preparation, LC MS/MS data collection, and MS data searches were carried out at the SPARC BioCentre at The Hospital for Sick Children (Toronto, ON, Canada). […] Samples were analyzed by liquid chromatography tandem mass spectrometry (LC-MS/MS) using an EASY-nanoLC 1200 system with a 1 h analysis and an Orbitrap Fusion™ Lumos™ Tribrid™ Mass Spectrometer (Thermo Fisher Scientific). […]

endogenous HTT = assay: Macrocycle precipitation (MP) of endogenous HTT from HEK293T cell extracts; assay type: binding, human; conditions: HEK293 cell lysate, 2 mg protein, streptavidin beads conjugated at 1.25 μM macrocycle, 1 hour at 4°C
Experimental: To explore binding and selectivity within a more physiological context, we used biotinylated derivatives of macrocycles to affinity purify HTT from cellular extracts, which we term “macrocycle precipitations” (MPs)(Figure 5a). The macrocycles were joined to the biotin using either a 2 amino acid linker (AK-Bio) or a PEG11 spacer (PEG11-Bio) (Supplementary Figure 12a). Extracts were prepared from HEK293T cells, including HTT knock-out lines and streptavidin beads were used to attempt to capture macrocycle–HTT complexes, and potentially associated binding partners.
as §1, §2, §3
All sample preparation, LC MS/MS data collection, and MS data searches were carried out at the SPARC BioCentre at The Hospital for Sick Children (Toronto, ON, Canada). Samples were reduced with DTT (10 mM, 60°C, 1 hour), alkylated with iodoacetamide (20 mM, room temperature, 45 min, dark), and digested overnight at 37°C with trypsin ([…]; Pierce). Peptides were dried by vacuum centrifugation, desalted on C18 ziptips (Millipore) using a DigestPro MSi (Intavis Bioanalytical Instruments), and dried again by vacuum centrifugation before resuspension in Buffer A (0.1% formic acid (v/v) in water). Samples were analyzed by liquid chromatography tandem mass spectrometry (LC-MS/MS) using an EASY-nanoLC 1200 system with a 1 h analysis and an Orbitrap Fusion™ Lumos™ Tribrid™ Mass Spectrometer (Thermo Fisher Scientific). The LC portion of the analysis consisted of a 18 min linear gradient running 3–20% of Buffer A to Buffer B (0.1% formic acid (v/v) in […]), followed by a 31 min linear gradient running 20–35% of Buffer A to Buffer B, a 2 min ramp to 100% Buffer B and 9 min hold at 100% Buffer B, all at a flow rate of 250 nL/min. Samples were loaded into a […] × 2 cm Acclaim PepMap 100 Pre-column followed by a 75 μm × 50 cm PepMax RSLC EASY-Spray analytical column filled with […] C18 beads (Thermo Fisher Scientific). MS1 acquisition resolution was set to 120000 with an automatic gain control (AGC) target value of 4 × 105 and maximum ion injection time (IT) of 50 ms for a scan range of m/z 375–1500, with dynamic exclusion set to 10 s. Isolation for MS2 scans was performed in the quadrupole with an isolation window of m/z 0.7. […]

[1] = molecular target: C-terminally biotinylated HTTQ23 in complex with HAP40 (UniProt P23610 1-371, biotin on the C-terminal Avi-tag); assay: SPR
HTTQ54-HAP40 = HTTQ54-HAP40 (UniProt P23610 1-371); assay: FP
HTTQ54-HAP40, sequence (P42858 other isoform, or with tags, fused parts or gaps, chain 1 of 2): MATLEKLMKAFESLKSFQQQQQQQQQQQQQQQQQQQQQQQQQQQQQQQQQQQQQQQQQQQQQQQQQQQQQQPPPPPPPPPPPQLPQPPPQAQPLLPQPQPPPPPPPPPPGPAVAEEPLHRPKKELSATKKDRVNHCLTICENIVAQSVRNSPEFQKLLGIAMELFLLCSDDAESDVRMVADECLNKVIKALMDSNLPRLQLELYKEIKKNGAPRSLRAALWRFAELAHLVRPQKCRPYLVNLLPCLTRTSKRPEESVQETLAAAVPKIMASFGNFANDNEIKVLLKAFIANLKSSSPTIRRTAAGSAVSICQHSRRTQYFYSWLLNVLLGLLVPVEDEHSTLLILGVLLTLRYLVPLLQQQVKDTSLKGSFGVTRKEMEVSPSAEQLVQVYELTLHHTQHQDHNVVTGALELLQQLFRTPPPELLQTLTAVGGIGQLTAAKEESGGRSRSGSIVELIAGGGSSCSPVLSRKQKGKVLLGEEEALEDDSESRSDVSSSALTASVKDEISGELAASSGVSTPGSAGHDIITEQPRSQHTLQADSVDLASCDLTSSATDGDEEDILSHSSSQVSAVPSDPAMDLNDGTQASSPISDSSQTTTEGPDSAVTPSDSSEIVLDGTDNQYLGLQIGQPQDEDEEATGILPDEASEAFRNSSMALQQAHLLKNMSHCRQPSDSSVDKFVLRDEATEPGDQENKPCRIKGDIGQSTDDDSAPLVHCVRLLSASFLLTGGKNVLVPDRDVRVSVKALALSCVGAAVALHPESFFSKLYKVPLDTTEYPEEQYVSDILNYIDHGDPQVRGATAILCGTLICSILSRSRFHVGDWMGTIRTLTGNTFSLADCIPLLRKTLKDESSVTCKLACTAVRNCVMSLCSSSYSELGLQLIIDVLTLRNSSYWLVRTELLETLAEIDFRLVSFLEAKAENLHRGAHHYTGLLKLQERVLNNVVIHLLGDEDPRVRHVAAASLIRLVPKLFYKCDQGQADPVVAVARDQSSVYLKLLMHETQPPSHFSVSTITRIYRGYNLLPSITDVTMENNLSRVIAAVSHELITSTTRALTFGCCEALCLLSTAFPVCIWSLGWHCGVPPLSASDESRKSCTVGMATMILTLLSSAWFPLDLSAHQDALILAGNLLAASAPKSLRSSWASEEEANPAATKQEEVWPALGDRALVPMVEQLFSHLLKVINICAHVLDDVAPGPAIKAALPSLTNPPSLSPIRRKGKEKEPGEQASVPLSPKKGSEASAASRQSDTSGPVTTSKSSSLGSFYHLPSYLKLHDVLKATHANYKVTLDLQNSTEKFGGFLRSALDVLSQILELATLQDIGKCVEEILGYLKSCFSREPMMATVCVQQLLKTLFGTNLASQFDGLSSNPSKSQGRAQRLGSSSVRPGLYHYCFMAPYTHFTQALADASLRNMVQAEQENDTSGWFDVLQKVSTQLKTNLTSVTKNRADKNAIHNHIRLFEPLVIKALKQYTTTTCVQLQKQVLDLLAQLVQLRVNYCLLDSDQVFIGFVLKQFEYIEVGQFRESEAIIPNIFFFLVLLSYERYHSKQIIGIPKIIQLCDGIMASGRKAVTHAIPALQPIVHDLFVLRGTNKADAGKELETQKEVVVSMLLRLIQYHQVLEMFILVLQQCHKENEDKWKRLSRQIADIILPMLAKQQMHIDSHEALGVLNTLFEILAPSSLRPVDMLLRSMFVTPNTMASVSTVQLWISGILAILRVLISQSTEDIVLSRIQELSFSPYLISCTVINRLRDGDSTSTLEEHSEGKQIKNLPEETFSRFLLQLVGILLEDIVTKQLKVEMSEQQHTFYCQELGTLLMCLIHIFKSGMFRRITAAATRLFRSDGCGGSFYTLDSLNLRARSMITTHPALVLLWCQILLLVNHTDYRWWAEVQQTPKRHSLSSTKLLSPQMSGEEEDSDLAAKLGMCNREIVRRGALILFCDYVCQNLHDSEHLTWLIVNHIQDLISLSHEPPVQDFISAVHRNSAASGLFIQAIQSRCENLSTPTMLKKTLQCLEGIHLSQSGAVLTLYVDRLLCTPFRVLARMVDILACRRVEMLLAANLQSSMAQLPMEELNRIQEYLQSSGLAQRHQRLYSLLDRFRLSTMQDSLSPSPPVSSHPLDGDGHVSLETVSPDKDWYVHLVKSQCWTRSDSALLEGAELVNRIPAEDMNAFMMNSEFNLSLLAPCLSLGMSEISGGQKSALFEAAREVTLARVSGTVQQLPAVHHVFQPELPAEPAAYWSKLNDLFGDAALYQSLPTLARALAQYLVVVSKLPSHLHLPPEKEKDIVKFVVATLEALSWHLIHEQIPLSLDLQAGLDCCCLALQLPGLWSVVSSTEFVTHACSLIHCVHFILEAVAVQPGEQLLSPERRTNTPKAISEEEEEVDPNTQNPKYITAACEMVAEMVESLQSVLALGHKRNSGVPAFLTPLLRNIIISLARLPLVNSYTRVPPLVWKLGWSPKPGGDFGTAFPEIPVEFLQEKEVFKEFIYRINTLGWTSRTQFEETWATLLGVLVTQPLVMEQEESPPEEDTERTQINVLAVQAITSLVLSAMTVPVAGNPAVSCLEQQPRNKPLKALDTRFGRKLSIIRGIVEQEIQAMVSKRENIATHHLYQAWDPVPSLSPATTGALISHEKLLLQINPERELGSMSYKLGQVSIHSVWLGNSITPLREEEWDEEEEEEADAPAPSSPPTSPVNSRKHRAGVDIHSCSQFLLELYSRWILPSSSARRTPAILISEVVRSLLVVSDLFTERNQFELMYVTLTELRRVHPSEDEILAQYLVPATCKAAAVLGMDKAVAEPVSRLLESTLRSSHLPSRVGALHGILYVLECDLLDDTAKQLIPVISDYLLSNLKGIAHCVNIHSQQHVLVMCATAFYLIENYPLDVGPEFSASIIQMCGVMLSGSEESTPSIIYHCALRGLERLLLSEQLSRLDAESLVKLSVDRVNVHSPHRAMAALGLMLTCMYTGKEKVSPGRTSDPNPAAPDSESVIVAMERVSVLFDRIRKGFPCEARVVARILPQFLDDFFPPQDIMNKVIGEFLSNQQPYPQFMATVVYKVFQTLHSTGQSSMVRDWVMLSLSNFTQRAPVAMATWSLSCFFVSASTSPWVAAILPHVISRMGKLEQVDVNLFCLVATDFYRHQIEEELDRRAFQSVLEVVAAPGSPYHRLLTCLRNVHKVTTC
HTTQ54-HAP40, sequence (P23610 whole entry, chain 2 of 2): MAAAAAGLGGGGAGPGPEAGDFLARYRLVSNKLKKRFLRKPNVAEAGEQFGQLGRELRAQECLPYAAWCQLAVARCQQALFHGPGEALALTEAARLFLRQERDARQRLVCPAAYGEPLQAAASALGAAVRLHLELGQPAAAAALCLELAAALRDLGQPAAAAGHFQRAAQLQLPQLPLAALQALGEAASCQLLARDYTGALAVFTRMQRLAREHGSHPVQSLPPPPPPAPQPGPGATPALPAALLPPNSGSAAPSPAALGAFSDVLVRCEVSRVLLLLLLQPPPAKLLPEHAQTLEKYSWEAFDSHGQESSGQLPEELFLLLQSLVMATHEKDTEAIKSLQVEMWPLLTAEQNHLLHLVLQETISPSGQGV

Molecule | Capture of endogenous HTT by immobilized biotinylated macrocycle (endogenous HTT) | also measured
CC[C@H](C)[C@H](NC(=O)CNC(=O)[C@@H](NC(=O)[C@H](CCC(N)=O)NC(=O)[C@H](CCCCN)NC(=O)[C@H](CC(N)=O)NC(=O)[C@@H](NC(=O)[C@H](CCC(=O)O)NC(=O)[C@@H]1CSCC(=O)N[C@H](Cc2ccc(O)cc2)C(=O)N[C@@H](CC(=O)O)C(=O)N[C@@H]([C@@H](C)CC)C(=O)N[C@@H](Cc2c[nH]c3ccccc23)C(=O)N1)[C@@H](C)O)[C@@H](C)O)C(=O)N[C@@H](CC(C)C)C(=O)N[C@H](C(=O)N[C@@H](CC(C)C)C(=O)N[C@@H](CS)C(N)=O)C(C)C [HD4] ({CH2CO}-[dY]DIWCETNKQTGILVLC-NH2; thioether N-5) | – | Thermal shift (ΔTm) of HTTQ23-HAP40 induced by macrocycle (HTTQ23-HAP40): No significant thermal effects; Enrichment of HAP40 in macrocycle pulldowns (HAP40): consistently enriched
HD4-AK-Bio: biotinylated derivative of HD4 with a 2 amino acid linker (AK-Bio) (Ac-[dY]DIWCETNKQTGILVLCAK; thioether (positions not given here); also: thioether to downstream Cys, which of Cys5/Cys17 not given here, biotin joined via AK linker, site not given here) | captured | –
HHD3-AK-Bio: biotinylated derivative of HHD3 with a 2 amino acid linker (AK-Bio) ({CH2CO}-[dY]TRHWQNNWWILYHEFCAK; thioether N-17 (inferred); also: biotin joined via AK linker, site not given here) | captured | –
HL5-PEG11-Bio: biotinylated derivative of HL5 with a PEG11 spacer ({CH2CO}-YTHFQVAPWIQSLC; thioether N-14 (inferred); also: biotin joined via PEG11 spacer) | captured | –
HL2-PEG11-Bio: biotinylated derivative of HL2 with a PEG11 spacer ({CH2CO}-YTARYLTLGTLHYKC; thioether N-15 (inferred); also: biotin joined via PEG11 spacer) | captured | –
HHL1-PEG11-Bio: biotinylated derivative of HHL1 with a PEG11 spacer ({CH2CO}-YLIRSSFNWFVFVEVPC; thioether N-17 (inferred); also: biotin joined via PEG11 spacer) | no detectable binding | –
HHL1-AK-Bio: biotinylated derivative of HHL1 with a 2 amino acid linker (AK-Bio) ({CH2CO}-YLIRSSFNWFVFVEVPCAK; thioether N-17 (inferred); also: biotin joined via 2 amino acid linker AK) | no detectable binding | –
{CH2CO}-YTARYLTLGTLHYKC (thioether N-15 (inferred)) [HL2] | – | Kd [1]: 2 nM
{CH2CO}-YLIRSSFNWFVFVEVPC-{FITC′} (thioether N-17 (inferred); not fully specified) [FITC-labeled HHL1] | – | Kd (HTTQ54-HAP40): 2.6 nM
{CH2CO}-[dY]TRHWQNNWWILYHEFC-{FITC′} (thioether N-17 (inferred); not fully specified) [FITC-labeled HHD3] | – | Kd (HTTQ54-HAP40): 2.6 nM
{CH2CO}-YTARYLTLGTLHYKC-{FITC′} (thioether N-15 (inferred); not fully specified) [FITC-labeled HL2] | – | Kd (HTTQ54-HAP40): 4 nM
